Laboratory results from patent US20070128217A1 (priority 2003, published 2007).

Tests used:
[1] = test system: antibodies in sera from SARS patients (sera 1a, 1b, 2, 6, 37, 62, London, SARS-yellow, SARS-green); type: binding, human; set-up: Binding of serum 6 to linear peptides of protein X1 of SARS-CoV Urbani / Binding of serum 37 to linear peptides of protein X1 of SARS-CoV Urbani / Binding of serum 6 to looped/cyclic peptide (PEPSCAN-ELISA) / Binding of serum 37 to looped/cyclic peptide (PEPSCAN-ELISA) / Binding of serum 37 to looped/cyclic peptides of protein X1 of SARS-CoV Urbani / Binding of serum 6 to linear peptides of protein X2 / Binding of serum 37 to linear peptides of protein X2 / Binding of serum 37 to looped/cyclic peptides of protein X2 of SARS-CoV Urbani / Binding of serum 6 to linear peptides of protein M of SARS-CoV Urbani / Binding of serum 37 to linear peptides of protein M of SARS-CoV Urbani / Binding of serum 6 to looped/cyclic peptides of protein M of SARS-CoV Urbani / Binding of serum 37 to looped/cyclic peptides of protein M of SARS-CoV Urbani / Binding of serum 6 to linear peptides of protein X3 of SARS-CoV Urbani / Binding of serum 37 to linear peptides of protein X3 of SARS-CoV Urbani / Binding of serum 37 to looped/cyclic peptides of protein X3 of SARS-CoV Urbani / Binding of serum 6 to linear peptides of protein X4 of SARS-CoV Urbani / Binding of serum 37 to linear peptides of protein X4 of SARS-CoV Urbani / Binding of serum 37 to looped/cyclic peptides of protein X4 of SARS-CoV Urbani / Binding of serum 6 to linear peptides of protein X5 of SARS-CoV Urbani / Binding of serum 37 to linear peptides of protein X5 of SARS-CoV Urbani / Binding of serum 37 to looped/cyclic peptides of protein X5 of SARS-CoV Urbani / Binding of serum 6 to linear peptides of protein N of SARS-CoV Urbani / Binding of serum 37 to linear peptides of protein N of SARS-CoV Urbani / Binding of serum 6 to linear peptide (PEPSCAN-ELISA) / Binding of serum 1a to looped/cyclic peptides of protein N of SARS-CoV Urbani / Binding of serum 1b to looped/cyclic peptides of protein N of SARS-CoV Urbani / Binding of serum 2 to looped/cyclic peptides of protein N of SARS-CoV Urbani / Binding of serum 6 to looped/cyclic peptides of protein N of SARS-CoV Urbani / Binding of serum 37 to looped/cyclic peptides of protein N of SARS-CoV Urbani / Binding of serum 62 to looped/cyclic peptides of protein N of SARS-CoV Urbani / Binding of serum London to looped/cyclic peptides of protein N of SARS-CoV Urbani / Binding of serum SARS-green to looped/cyclic peptides of protein N of SARS-CoV Urbani: unit not given here
[2] = test system: control sera (pooled serum of ten healthy LUMC hospital workers; commercial negative donor pooled serum from the Dutch bloodbank); type: binding, human; set-up: Binding of Control serum LUMC to linear peptides / Binding of Control serum Blood-bank to linear peptides / Binding of Control serum LUMC to looped peptides / Binding of Control Serum Blood-Bank to Looped peptides / Binding of Control serum LUMC to linear peptides of the protein M of SARS-CoV Urbani / Binding of Control serum Blood-bank to linear peptides of the protein M of SARS-CoV Urbani / Binding of Control serum LUMC to looped peptides of the protein M of SARS-CoV Urbani / Binding of Control Serum Blood-Bank to Looped peptides of the protein M of SARS-CoV Urbani: unit not given here
[3] = test system: rabbit serum obtained by immunizing a rabbit with the SARS-CoV strain Frankfurt 1; type: binding; set-up: Binding of a rabbit serum to linear peptides / Binding of a rabbit serum to looped peptides / Rabbit serum linear peptides / Rabbit serum looped peptides / Binding of a rabbit serum to linear peptides of protein N of SARS-CoV Urbani (Rabbit serum linear peptides) / Binding of a rabbit serum to looped/cyclic peptides of protein N of SARS-CoV Urbani (Rabbit serum looped peptides): unit not given here
[4] = test system: recombinant human anti-SARS-CoV antibody 03-018; type: binding; set-up: Binding of antibody 03-018 to linear peptides of the N protein of SARS-CoV Urbani / Binding of antibody 03-018 to looped/cyclic peptides of the N protein of SARS-CoV Urbani: unit not given here

HIGTRNPNNNAATVL
Binding of serum 1a to linear peptides of protein N of SARS-CoV Urbani [1]: 0.3 | Binding of serum 1a to looped/cyclic peptides of protein N of SARS-CoV Urbani [1]: 0.6 | Binding of serum 1b to linear peptides of protein N of SARS-CoV Urbani [1]: 0.2 | Binding of serum 1b to looped/cyclic peptides of protein N of SARS-CoV Urbani [1]: 0.5 | Binding of serum 2 to linear peptides of protein N of SARS-CoV Urbani [1]: 0.4 | Binding of serum 2 to looped/cyclic peptides of protein N of SARS-CoV Urbani [1]: 0.9 | Binding of serum 6 to linear peptides of protein N of SARS-CoV Urbani [1]: 0.2 | Binding of serum 6 to looped/cyclic peptides of protein N of SARS-CoV Urbani [1]: 0.6 | Binding of serum 37 to linear peptides of protein N of SARS-CoV Urbani [1]: 0.9 | Binding of serum 37 to looped/cyclic peptides of protein N of SARS-CoV Urbani [1]: 1.2 | Binding of serum 62 to linear peptides of protein N of SARS-CoV Urbani [1]: 0.8 | Binding of serum 62 to looped/cyclic peptides of protein N of SARS-CoV Urbani [1]: 1.3 | Binding of serum London to linear peptides of protein N of SARS-CoV Urbani [1]: 0.5 | Binding of serum London to looped/cyclic peptides of protein N of SARS-CoV Urbani [1]: 0.7 | Binding of serum SARS-green to linear peptides of protein N of SARS-CoV Urbani [1]: 0.5 | Binding of serum SARS-green to looped/cyclic peptides of protein N of SARS-CoV Urbani [1]: 0.9 | Binding of serum SARS-yellow to linear peptides of protein N of SARS-CoV Urbani [1]: 0.7 | Binding of serum SARS-yellow to looped/cyclic peptides of protein N of SARS-CoV Urbani [1]: 0.8 | Binding of Control Serum Blood-Bank to Looped peptides [2]: 1.2 | Binding of Control serum Blood-bank to linear peptides [2]: 0.9 | Binding of Control serum LUMC to linear peptides [2]: 0.9 | Binding of Control serum LUMC to looped peptides [2]: 1.2 | Binding of a rabbit serum to linear peptides of protein N of SARS-CoV Urbani (Rabbit serum linear peptides) [3]: 0.1 | Binding of a rabbit serum to looped/cyclic peptides of protein N of SARS-CoV Urbani (Rabbit serum looped peptides) [3]: 0.7 | Binding of antibody 03-018 to linear peptides of the N protein of SARS-CoV Urbani [4]: 0.1 | Binding of antibody 03-018 to looped/cyclic peptides of the N protein of SARS-CoV Urbani [4]: 0.3

ITFGGPTDSTDNNQN
Binding of serum 1a to linear peptides of protein N of SARS-CoV Urbani [1]: 0.2 | Binding of serum 1a to looped/cyclic peptides of protein N of SARS-CoV Urbani [1]: 0.3 | Binding of serum 1b to linear peptides of protein N of SARS-CoV Urbani [1]: 0.1 | Binding of serum 1b to looped/cyclic peptides of protein N of SARS-CoV Urbani [1]: 0.2 | Binding of serum 2 to linear peptides of protein N of SARS-CoV Urbani [1]: 0.1 | Binding of serum 2 to looped/cyclic peptides of protein N of SARS-CoV Urbani [1]: 0.3 | Binding of serum 6 to linear peptides of protein N of SARS-CoV Urbani [1]: 0.1 | Binding of serum 6 to looped/cyclic peptides of protein N of SARS-CoV Urbani [1]: 0.2 | Binding of serum 37 to linear peptides of protein N of SARS-CoV Urbani [1]: 0.7 | Binding of serum 37 to looped/cyclic peptides of protein N of SARS-CoV Urbani [1]: 0.6 | Binding of serum 62 to linear peptides of protein N of SARS-CoV Urbani [1]: 0.6 | Binding of serum 62 to looped/cyclic peptides of protein N of SARS-CoV Urbani [1]: 0.5 | Binding of serum London to linear peptides of protein N of SARS-CoV Urbani [1]: 0.5 | Binding of serum London to looped/cyclic peptides of protein N of SARS-CoV Urbani [1]: 0.4 | Binding of serum SARS-green to linear peptides of protein N of SARS-CoV Urbani [1]: 0.3 | Binding of serum SARS-green to looped/cyclic peptides of protein N of SARS-CoV Urbani [1]: 0.7 | Binding of serum SARS-yellow to linear peptides of protein N of SARS-CoV Urbani [1]: 0.4 | Binding of serum SARS-yellow to looped/cyclic peptides of protein N of SARS-CoV Urbani [1]: 0.3 | Binding of Control Serum Blood-Bank to Looped peptides [2]: 0.7 | Binding of Control serum Blood-bank to linear peptides [2]: 0.5 | Binding of Control serum LUMC to linear peptides [2]: 0.6 | Binding of Control serum LUMC to looped peptides [2]: 0.7 | Binding of a rabbit serum to linear peptides of protein N of SARS-CoV Urbani (Rabbit serum linear peptides) [3]: 0.1 | Binding of a rabbit serum to looped/cyclic peptides of protein N of SARS-CoV Urbani (Rabbit serum looped peptides) [3]: 0.3 | Recognition of the peptide by antibody 03-018 [4]: recognized

KDHIGTRNPNNNAAT
Binding of serum 1a to linear peptides of protein N of SARS-CoV Urbani [1]: 0.3 | Binding of serum 1a to looped/cyclic peptides of protein N of SARS-CoV Urbani [1]: 0.4 | Binding of serum 1b to linear peptides of protein N of SARS-CoV Urbani [1]: 0.2 | Binding of serum 1b to looped/cyclic peptides of protein N of SARS-CoV Urbani [1]: 0.3 | Binding of serum 2 to linear peptides of protein N of SARS-CoV Urbani [1]: 0.4 | Binding of serum 2 to looped/cyclic peptides of protein N of SARS-CoV Urbani [1]: 0.5 | Binding of serum 6 to linear peptides of protein N of SARS-CoV Urbani [1]: 0.3 | Binding of serum 6 to looped/cyclic peptides of protein N of SARS-CoV Urbani [1]: 0.4 | Binding of serum 37 to linear peptides of protein N of SARS-CoV Urbani [1]: 0.9 | Binding of serum 37 to looped/cyclic peptides of protein N of SARS-CoV Urbani [1]: 0.5 | Binding of serum 62 to linear peptides of protein N of SARS-CoV Urbani [1]: 0.8 | Binding of serum 62 to looped/cyclic peptides of protein N of SARS-CoV Urbani [1]: 0.4 | Binding of serum London to linear peptides of protein N of SARS-CoV Urbani [1]: 0.5 | Binding of serum London to looped/cyclic peptides of protein N of SARS-CoV Urbani [1]: 0.4 | Binding of serum SARS-green to linear peptides of protein N of SARS-CoV Urbani [1]: 0.5 | Binding of serum SARS-green to looped/cyclic peptides of protein N of SARS-CoV Urbani [1]: 0.1 | Binding of serum SARS-yellow to linear peptides of protein N of SARS-CoV Urbani [1]: 0.8 | Binding of serum SARS-yellow to looped/cyclic peptides of protein N of SARS-CoV Urbani [1]: 0.3 | Binding of Control Serum Blood-Bank to Looped peptides [2]: 0.6 | Binding of Control serum Blood-bank to linear peptides [2]: 0.9 | Binding of Control serum LUMC to linear peptides [2]: 0.8 | Binding of Control serum LUMC to looped peptides [2]: 0.6 | Binding of a rabbit serum to linear peptides of protein N of SARS-CoV Urbani (Rabbit serum linear peptides) [3]: 0.1 | Binding of a rabbit serum to looped/cyclic peptides of protein N of SARS-CoV Urbani (Rabbit serum looped peptides) [3]: 0.2 | Binding of antibody 03-018 to linear peptides of the N protein of SARS-CoV Urbani [4]: 0.1 | Binding of antibody 03-018 to looped/cyclic peptides of the N protein of SARS-CoV Urbani [4]: 0.2
